According to patent US20220265759A1, “COMPOSITION AND METHOD FOR PROMOTING WOUND HEALING” (THE BOARD OF TRUSTEES OF THE UNIVERSITY OF ILLIOIS, priority 2019, published 2022):
Peptide text beside a SMILES is read from it. * marks the point of attachment. Myristoyl = CCCCCCCCCCCCCC(=O)*

Assays:
[1] = tested on: CCL28, IL-6, TNF-α, IL-1β, CCR10, VEGF, IL-13, IL-4, eNOS, CD31, Flk-1, VE-cadherin; assay: ELISA and real-time RT-PCR of inflammatory factors and EC markers in db/db mouse wounds; type: in vivo, db/db mice
Procedure: Real-Time RT-PCR. Total cellular RNA from mouse skin wounds was extracted using nucleic acid extraction reagent sold under the tradename TRIZOL®. mRNA expression of different genes was examined by real-time RT-PCR that employed a SYBR Green PCR mix. Relative gene expression was determined by the ΔΔCt method based on GAPDH levels as described previously (Chen, et al. (2013) J. Immunol. 190:5256-5266).
ELISA Measurement. Mouse skin wounds were collected, lysed, and prepared for ELISA measurement of mouse CCL28 and IL-6 according to manufacturer's instructions.
It was investigated whether topical application of Myr-CBD7 affects these factors in db/db mice known to play important roles in the healing processes. Mouse wounds on day 3 (Inflammation Phase) and day 12 (Proliferation Phase) were collected and inflammatory factor levels were determined by ELISA and real-time RT-PCR.
On day 12 after Myr-CBD7 treatment, elevated levels of eNOS/NO were observed as well as enhanced angiogenesis in mouse wounds. Furthermore, Myr-CBD7 treatment lead to elevated levels of VEGF, anti-inflammatory cytokines IL-13 and IL-4 (M2 markers), as well as EC markers eNOS, CD31, Flk-1 and VE-cadherin in mouse wounds.

[2] = tested on: NO production; assay: NO production in db/db mouse wounds (nitrite measurement); type: in vivo, db/db mice; conditions: day 12, nitrite measurement
Procedure: Nitrite Measurement with Griess Reagent. Supernatants from confluent endothelial cells on 10-cm dishes with and without stimulation at 37° C. were analyzed for nitrite level using a Griess Reagent kit according to the manufacturer's instructions. Nitrite levels were normalized to eNOS expression level in the cells, as described in the art (Chen, et al. (2020) FASEB J. 34(4):5838-5850).
(§1) Two 8 mm full thickness excisional wounds were made on the dorsal skin of diabetic db/db mice and then 50 μl of 50 μM Myr-CBD7 peptide was topically applied. […] Reduced CCR10-eNOS interaction was also observed in the mouse wounds following treatment with Myr-CBD7 peptide as determined by Co-IP (FIG. 6).

[3] = tested on: full thickness excisional wounds on mouse dorsal skin; assay: Excisional dermal wound healing in WT C57BL/6 mice; type: in vivo; conditions: for reduction of wound size: compared to control peptide
Procedure: (§2) Mouse Healing Models. All animal procedures were performed in accordance with the Guide for the Care and Use of Laboratory Animals (National Institutes of Health). WT C57BL/6, eNOS^−/− and db/db mice were purchased from Jackson Laboratory (Bar Harbor, Me.). CCR10^−/− mice have been described in the art, see, e.g., Jin, et al. (2011) J. Immunol. 185(10):5723-31. Four 5-mm or two 8-mm full thickness excisional wounds were made on the dorsal skin of mice (male, aged at 9 weeks) using a standard skin biopsy punch under ketamine (100 mg/kg) and xylazine (5 mg/kg) anesthesia. Scrambled myristoylated (Myr−) control or Myr-CBD7 peptides were applied topically to wounds in F-127 gel sold under the tradename PLURONIC® after wounding (Mirza, et al. (2009) Am. J. Pathol. 175:2454-2462). Wound size was determined as previously described (Chen, et al. (2020) FASEB J. 34(4):5838-5850; Zhao, et al. (2016) PLoS ONE. 11:e0146451) and wounds were collected at indicated times for indicated measurements.
Hematoxylin and Eosin (H&E) Staining. H&E staining was performed as described previously (Chignalia, et al. (2015) Am. J. Pathol. 185:1251-1263). Slides with 5 μm tissue sections were baked at 60° C. for 30 minutes and stained with an Autostainer XL (Leica Microsystems, Wetzlar, Germany) using preset protocol. Briefly, slides were deparaffinized in three changes of xylene, rehydrated in 100% and 95% ethanol, […] followed by a brief immersion in High-Def and Bluing to obtain crisp nuclear details. Slides were then incubated in eosin for 2 minutes, dehydrated and mounted with Micromount media (Leica Biosystems). Whole slide images were obtained using Aperio AT2 brightfield scanner (Leica Microsystems, Wetzlar, Germany).
CCL28 (also called mucosa-associated epithelial chemokine) is a CC chemokine that signals via CCR10 as well as CCR3 (Pan, et al. (2000) J. Immunol. 165:2943). CCR10 has been reported to have two functional ligands, CCL27 and CCL28 that are involved in the epithelial immunity (Xiang, et al. (2012) Protein Cell 3:571-580). It was observed that CCL28 and CCR10 levels were highly expressed compared to CCL27 and CCR3 in skin of WT C57BL/6 mice. […] Therefore, it was subsequently investigated whether blockade of CCR10-eNOS interaction with Myr-CBD7 peptide has an effect on wound healing in WT C57BL/6 mice. Four 5 mm diameter full thickness excisional wounds were made on the mouse dorsal skin and 30 μl Myr-CBD7 peptide (50 μM) was topically administrated onto the wounds immediately after creating the punch wound.

[4] = tested on: HEK/eNOS cells; assay: NO production in HEK/eNOS cells; type: cell-based, human; conditions: HEK/eNOS cells with/without co-expression of CCR10-GFP, pretreatment, compared with control peptide
[5] = tested on: full thickness excisional wounds on db/db mouse dorsal skin; assay: Excisional dorsal skin wound healing in diabetic db/db mice; type: in vivo
Procedure: as §2, §1

`CCCCCCCCCCCCCC(=O)N[C@@H](CCCCN)C(=O)N[C@H](C(=O)N[C@@H](CO)C(=O)N[C@@H](C)C(=O)N[C@@H](CO)C(=O)N[C@@H](CC(C)C)C(=O)N[C@@H](CCSC)C(=O)O)[C@@H](C)CC` [Myr-CBD7, myr-KISASLM] (Myristoyl-KISASLM-OH) was tested, and the “level of CCR10” value ([1]; day 3, compared to control peptide) was “reduced”, the “mRNA level of IL-6” value ([1]; day 3 wounds) was “reduced” and the “protein level of CCL28” value ([1]; day 3 wounds, ELISA) was “significantly reduced”. The “protein level of IL-6” value ([1]; day 3 wounds, ELISA) was “significantly reduced”, the “protein level of TNF-α” value ([1]; day 3 wounds, ELISA) was “significantly reduced” and the “level of EC marker CD31” value ([1]; day 12 wounds) was “elevated”. The “level of EC marker Flk-1” value ([1]; day 12 wounds) was “elevated”, the “level of EC marker VE-cadherin” value ([1]; day 12 wounds) was “elevated” and the “level of EC marker eNOS” value ([1]; day 12 wounds) was “elevated”. The “level of IL-4” value ([1]; day 12 wounds) was “elevated”, the “level of IL-13” value ([1]; day 12 wounds) was “elevated” and the “level of VEGF” value ([1]; day 12 wounds) was “elevated”. The “NO production in wounds” value [2] was “significantly elevated”, the “reduction of wound size” value ([3]; day 5, 30 μl of 50 μM topical) was 20% and the “wound size (FIG. 1)” value ([3]; day 5 and 7, 30 μl (50 μM) per wound, vs Myr-control construct, P<0.05) was “reduced wound size significantly”. The “reduction of wound size” value ([3]; day 7, 30 μl of 50 μM topical) was 35%, the “re-epithelization of the skin wound (H&E stained sections)” value ([3]; day 7, vs control construct) was “associated with re-epithelization of the skin wound” and the wound healing time ([3]; topical administration on dermal wounds) was “decreased”. The NO production [4] was “elevated significantly”, the “decrease of wound healing time” value ([5]; 50 μl of 50 μM topical, vs control peptide) was 4 days and the “reduction of wound size” value ([5]; day 4, compared to control peptide) was 19%. The “reduction of wound size” value ([5]; day 12, compared to control peptide) was 46% and the “wound size (FIG. 5)” value ([5]; from day 4, 30 μl (50 μM) topical, compared with control construct) was “reduces wound size significantly”.
